Assay results taken from patent US20230014907A1, “INHIBITORS OF APOL1 AND METHODS OF USING SAME” (Vertex Pharmaceuticals Incorporated, priority 2020, published 2023).
Structures can show the parent of a compound that is named as a salt.

What was measured:
G1 APOL1 = biological target: T1, G1 APOL1 (Homo sapiens, UniProt O14791, I384M/S342G); assay: Acute APOL1 Thallium Assay with Inducible Stable Clones of HEK 293 Cells; type: cell-based; settings: HEK 293 inducible stable clones, G1 APOL1; read-out: Thallium Assay (IC50)
T1 construct: expressed in transfected cells
T1 sequence (O14791 28-398 S342G/I384M): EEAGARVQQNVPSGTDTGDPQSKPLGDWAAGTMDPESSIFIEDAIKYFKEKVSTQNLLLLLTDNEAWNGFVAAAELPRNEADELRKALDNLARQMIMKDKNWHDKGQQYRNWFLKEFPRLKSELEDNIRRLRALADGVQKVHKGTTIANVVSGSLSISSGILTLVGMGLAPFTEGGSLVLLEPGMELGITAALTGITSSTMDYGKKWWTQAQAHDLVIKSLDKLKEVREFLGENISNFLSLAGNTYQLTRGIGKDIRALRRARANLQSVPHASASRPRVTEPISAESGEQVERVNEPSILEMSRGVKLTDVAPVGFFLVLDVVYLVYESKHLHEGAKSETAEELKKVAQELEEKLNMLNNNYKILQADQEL
Summary of the method: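 Pore activity was read as the fluorescence increase from Tl+ entering cells loaded with an AM-ester thallium indicator dye. The cells were tetracycline-inducible HEK293 T-Rex expressing G1 APOL1 (clone DC3.25), induced when plated at 26000 per well and incubated at 37° C.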

APOL1 G1 Protein = biological target: T2, APOL1 G1 Protein (Homo sapiens, UniProt O14791, I384M/S342G); assay: Trypanosoma brucei brucei Lysis Assay Using APOL1 Recombinant Protein (AlamarBlue viability); type: cell-based; settings: read-out: Trypanosomal Assay (IC50)
T2 sequence (O14791 28-398 S342G/I384M): T1 sequence (O14791 28-398 S342G/I384M)
Text: Trypanosoma brucei brucei is a blood stream parasite to which human, gorillas and baboon are immune due to the presence of the APOL1 protein in their HDL particles. The protein is uptaken by the parasite via the TbHpHb receptor located in its flagellar pocket and is bonded by the Hpr protein contained in the HDL particles which triggers the receptor endocytosis by the parasite.
Following endocytosis, the formed vesicle containing the HDL particle matures from early to late endosome, and subsequently to lysosome. The concomitant pH change in the lumen of the vesicle triggers the insertion of the APOL1 protein into the membrane of the late endosome/lysosome and hereby triggers lysosomal membrane permeabilization and as a further downstream event, trypanosome lysis. Trypanosoma brucei brucei is sensitive to lysis by all three APOL1 variants (G0, G1, and G2).
The Trypanosoma brucei brucei lysis assay is a lysis assay of the parasite using recombinant APOL1 protein variant followed by a fluorescent detection method of viability by the addition of AlamarBlue reagent to the assay well, a general metabolic redox indicator (AlamarBlue assay).
Briefly, the AlamarBlue active compound, the resazurin, a blue, water soluble, non-toxic and cell permeable molecule, which can be followed by absorbance, is reduced by various metabolic pathways into resorufin, a red compound which can be followed by either absorbance or fluorescence. The assay allows the calculation of the percent viability (percent of living Trypanosomes remaining in each well) at the end of a lysis relative to the untreated condition by interpolation of fluorescent values (FLU) on a standard curve with a known amount of seeded trypanosome/well.
Trypanosoma brucei brucei (ATCC, Cat. No. PRA-382) • Lister 427 VSG 221 bloodstream form.
Thaw/Expansion Media (ATCC Medium 2834 Modified HMI-9 Medium)
Assay Media (No Phenol Red/No FBS): Make on Day of Use
Hypoxanthine Stock (100×)-9 (10×)
Equipment • E1-Clip Tip pipette 12 channel adjustable 2-125 μL, Cat. No. 4672070BT • ThermoFisher MultiDrop 384, Cat. No. 5840300 • Multidrop • Agilent Bravo, Cat. No. G5409A • Bravo • SpectraMax M5
Trypanosoma brucei brucei Culture
Step 2, Day 4 • Centrifuge at 800×g for 5 minutes at room temperature. • Resuspend in 1 mL media. • Make a 1:25 fold dilution (10 μL/240 μL media). • Count on a hemocytometer (after adding parasites). • Let sit for 1-2 minutes for the parasites to settle. • Count should be approximately 100 viable motile parasites/16 grid or approximately 25×10^6 parasites/flask. • Passage the parasites by adding 1×10^6 parasites/T75 flask in 20 mL media. • Passage the parasites by adding 2.33×10^6 parasites/T175 flask in 46.6 mL media. • For every T75 flask should make enough for approximately 1.5×384 well assay plates. • For every T175 flask should make enough for approximately 3.8×384 well assay plates.
Step 3, Day 6 • Centrifuge at 800×g for 5 minutes. • Resuspend in 3 mL assay media (No phenol red, no FBS) per 75 starting flask. • Resuspend in 7 mL assay media (No phenol red, no FBS) per 175 flask • Make a 1:25 fold dilution. • Count by hemocytometer. • Every T75 flask set up should have approximately 75×10^6 parasites/flask (verify doubling time=8.7 hours±1 hour). • Every T175 flask set up should have approximately 175×10^6 parasites/flask (verify doubling time=8.7 hours±1 hour). • Require 46×10^6 parasites per 384 well plate (at 120,000 parasites per well). […]

Compound	IC50 (G1 APOL1) [nM]	IC50 (APOL1 G1 Protein) [nM]
O=C(CCc1c(-c2ccc(F)cc2)[nH]c2ccc(F)cc12)N[C@H]1CNC[C@@H]1O [Compound 2, 3-[5-fluoro-2-(4-fluorophenyl)-1H-indol-3-yl]-N-[(3S,4S)-4-hydroxypyrrolidin-3-yl]propanamide hydrochloride]	> 1000	> 1000
CC(=O)NCC(F)(F)Cc1c(-c2ccc(F)cc2)[nH]c2c(F)cc(F)cc12 [Compound 515, N-[3-[5,7-difluoro-2-(4-fluorophenyl)-1H-indol-3-yl]-2,2-difluoro-propyl]acetamide]	250 to 1000	250 to 1000
C#CC(CO)CNC(=O)CCc1c(-c2ccc(F)cc2)[nH]c2c(F)cc(F)cc12 (stereo not drawn) [Compound 118]	250 to 1000	250 to 1000
O=C(CCc1c(-c2ccc(F)cc2)[nH]c2ccc(F)cc12)NC1(CO)COC1 [Compound 32]	250 to 1000	250 to 1000
O=C(CCc1c(-c2ccc(F)cc2)[nH]c2ccc(F)cc12)NC1CC(F)(F)C1 [Compound 47]	250 to 1000	> 1000
O=C(CCc1c(-c2ccc(F)cc2)[nH]c2ccc(F)cc12)N[C@H](CO)C(F)(F)F [Compound 50]	> 1000	> 1000
Cn1nccc1NC(=O)CCc1c(-c2ccc(F)cc2)[nH]c2c(F)cc(F)cc12 [Compound 144]	> 1000	> 1000
O=C(CCc1c(-c2ccc(F)cc2)[nH]c2ccc(F)cc12)N[C@H]1C[C@H](O)C1 [Compound 84]	> 1000	> 1000
CC(=O)NCCCc1c(-c2ccc(F)cc2)[nH]c2c(F)cc(F)cc12 [Compound 505, N-[3-[5,7-difluoro-2-(4-fluorophenyl)-1H-indol-3-yl]propyl]acetamide]	< 250	250 to 1000
OCCCc1c(-c2ccc(F)cc2)[nH]c2c(F)cc(F)cc12 [Compound 517, 3-[5,7-difluoro-2-(4-fluorophenyl)-1H-indol-3-yl]propan-1-ol]	< 250	< 250
O=C(CCc1c(-c2ccc(F)cc2)[nH]c2ccc(F)cc12)NCCO [Compound 25]	> 1000	> 1000
CC(O)C(C)NC(=O)CCc1c(-c2ccc(F)cc2)[nH]c2ccc(F)cc12 (mixture of isomers) [Compound 35]	> 1000	> 1000
CC1(NC(=O)OC(C)(C)C)CCN(C(=O)CCc2c(-c3ccc(F)cc3)[nH]c3ccc(F)cc23)C1 (stereo not drawn) [Compound 27]	> 1000	> 1000
C[C@H](CO)NC(=O)CCc1c(-c2ccc(F)cc2)[nH]c2c(F)cc(F)cc12 [Compound 120]	< 250	< 250
NCCCCc1c(-c2ccc(F)cc2)[nH]c2c(F)cc(F)cc12 [Compound 511, 4-[5,7-difluoro-2-(4-fluorophenyl)-1H-indol-3-yl]butan-1-amine]	< 250	< 250
O=C(CCc1c(-c2ccc(F)cc2)[nH]c2c(F)cc(F)cc12)N1CCCC1CCO (stereo not drawn) [Compound 136]	> 1000	> 1000
CC(C)(NC(=O)CCc1c(-c2ccc(F)cc2)[nH]c2ccc(F)cc12)C(N)=O [Compound 17]	250 to 1000	250 to 1000
O=C(CCc1c(-c2ccc(F)cc2)[nH]c2c(F)cc(F)cc12)N1CCC[C@@H]1CO [Compound 117]	> 1000	250 to 1000
COCCNC(=O)CCc1c(-c2ccc(F)cc2)[nH]c2c(F)cc(F)cc12 [Compound 164]	> 1000	> 1000
O=C(CCc1c(-c2ccc(F)cc2)[nH]c2ccc(F)cc12)NC1CC1c1ccc(F)cc1 (stereo not drawn) [Compound 44]	> 1000	> 1000
Cc1cc(NC(=O)CCc2c(-c3ccc(F)cc3)[nH]c3c(F)cc(F)cc23)no1 [Compound 180]	> 1000	> 1000

Compound	IC50 (G1 APOL1) [nM]	IC50 (APOL1 G1 Protein) [nM]
C[C@@H](CO)NC(=O)NCCc1c(-c2ccc(F)cc2)[nH]c2c(F)cc(F)cc12 [Compound 283]	< 250	< 250
NC(=O)CCc1c(-c2ccc(F)cc2)[nH]c2ccc(F)cc12 [Compound 68]	> 1000	> 1000
CN(CCN)C(=O)CCc1c(-c2ccc(F)cc2)[nH]c2ccc(F)cc12 [Compound 37]	> 1000	> 1000
NC(=O)CNC(=O)CCc1c(-c2ccc(F)cc2)[nH]c2c(F)cc(F)cc12 [Compound 111]	> 1000	> 1000
O=C(CCc1c(-c2ccccc2)[nH]c2ccc(F)cc12)NCCO [Compound 236]	> 1000	> 1000
CC(O)C(=O)NCCCc1c(-c2ccc(F)cc2)[nH]c2ccc(F)cc12 (racemic) [Compound 507]	< 250	250 to 1000
O=C(CCc1c(-c2ccc(F)cc2)[nH]c2c(F)cc(F)cc12)Nc1cccc(=O)[nH]1 [Compound 170]	> 1000	> 1000
NC1CCC(NC(=O)CCc2c(-c3ccc(F)cc3)[nH]c3ccc(F)cc23)C1 (stereo not drawn) [Compound 7]	> 1000	> 1000
O=C(CCc1c(-c2ccc(F)cc2)[nH]c2ccc(F)cc12)NCC(F)F [Compound 24]	250 to 1000	> 1000
O=C(CCc1c(-c2ccc(F)cc2)[nH]c2ccc(F)cc12)N1CC(O)C1 [Compound 58]	> 1000	> 1000
CNC(=O)CCc1c(-c2ccc(F)cc2)[nH]c2ccc(F)cc12 [Compound 73]	> 1000	> 1000
O=C(CCc1c(-c2ccc(F)cc2)[nH]c2ccc(F)cc12)NCC1(O)CC1 [Compound 82]	> 1000	> 1000
CC(C)C[C@@H](CO)NC(=O)CCc1c(-c2ccc(F)cc2)[nH]c2c(F)cc(F)cc12 [Compound 158]	> 1000	> 1000
O=C(CCc1c(-c2ccc(F)cc2)[nH]c2c(F)cc(F)cc12)N1CC[C@H]1CO [Compound 138]	> 1000	> 1000
CC(NC(=O)CCc1c(-c2ccc(F)cc2)[nH]c2c(F)cc(F)cc12)C(F)(F)F (racemic) [Compound 115]	250 to 1000	250 to 1000
O=C(CCc1c(-c2ccc(F)cc2)[nH]c2c(F)cc(F)cc12)NC1(CCO)CC1 [Compound 154]	> 1000	> 1000
O=C(CCc1c(-c2ccc(F)cc2)[nH]c2c(F)cc(F)cc12)Nc1nc(C(F)(F)F)co1 [Compound 171]	> 1000	> 1000
O=C(CCc1c(-c2ccc(F)cc2)[nH]c2ccc(F)cc12)NC(CO)CO [Compound 22]	250 to 1000	250 to 1000
O=C(CCc1c(-c2ccc(F)cc2)[nH]c2c(F)cc(F)cc12)Nc1ccno1 [Compound 184]	> 1000	> 1000
O=C(CCc1c(-c2ccc(F)cc2)[nH]c2c(F)cc(F)cc12)Nc1cnoc1 [Compound 146]	> 1000	> 1000
CC(C)C(CO)NC(=O)CCc1c(-c2ccc(F)cc2)[nH]c2ccc(F)cc12 (stereo not drawn) [Compound 75]	> 1000	> 1000
